Laboratory results taken from PubChem BioAssay (NCI).
Several values for one entry are separate records, joined by “and”; a condition that tells them apart may be missing. Equal entries are not always repeated.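 Five compound concentrations were applied to cells in 96-well plates for 48 hours; endpoints were derived by simple linear interpolation of the resulting dose-response curve. GI50 marks 50% less growth. TGI is the concentration that stops growth completely.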

Experiments:
Experiment in all cases: NCI-60 cell line screen, 48 h
OVCAR-3 ovarian = system: OVCAR-3 ovarian
COLO 205 colon = system: COLO 205 colon
NCI/ADR-RES ovarian = system: NCI/ADR-RES ovarian
SW-620 colon = system: SW-620 colon
TK-10 renal = system: TK-10 renal
SNB-19 CNS = system: SNB-19 CNS
BT-549 breast = system: BT-549 breast
MOLT-4 leukemia = system: MOLT-4 leukemia
T-47D breast = system: T-47D breast
RXF 393 renal = system: RXF 393 renal

| SMILES | GI50 (OVCAR-3 ovarian) | TGI (OVCAR-3 ovarian) | GI50 (COLO 205 colon) | TGI (COLO 205 colon) | GI50 (NCI/ADR-RES ovarian) | TGI (NCI/ADR-RES ovarian) | GI50 (SW-620 colon) | TGI (SW-620 colon) | GI50 (TK-10 renal) | TGI (TK-10 renal) | GI50 (SNB-19 CNS) | TGI (SNB-19 CNS) | GI50 (BT-549 breast) | TGI (BT-549 breast) | GI50 (MOLT-4 leukemia) | TGI (MOLT-4 leukemia) | GI50 (T-47D breast) | TGI (T-47D breast) | GI50 (RXF 393 renal) | TGI (RXF 393 renal) |
| --- | --- | --- | --- | --- | --- | --- | --- | --- | --- | --- | --- | --- | --- | --- | --- | --- | --- | --- | --- | --- |
| O=c1oc2ccccc2c(Cl)c1Cl | 1.94 µM | 4.38 µM | 2.19 µM | 4.84 µM | 5.85 µM | 21.4 µM | 1.51 µM | 5.6 µM | 1.88 µM | 3.7 µM | 10.5 µM | 22.7 µM | 2.63 µM | 9.33 µM | 3.37 µM | > 100 µM | 2.38 µM | 6.87 µM | 1.95 µM | 4.31 µM |
| CC(C)(C)[Si](C)(C)OC1[C@@H](O[Si](C)(C)C(C)(C)C)[C@@H](CNC(=O)NC(=O)NC(=O)CI)O[C@H]1n1cnc2c(NC(=O)Nc3ccccc3)ncnc21 (some centres undefined) | 0.215 µM | 0.62 µM | 6.11 µM | 13.2 µM | 0.909 µM | 3.41 µM | 3.38 µM | 12.6 µM | 0.21 µM | 1.05 µM | 12.5 µM | 38.2 µM | 6.89 µM | 13.9 µM | 0.718 µM | 3.12 µM | 9.63 µM | 28 µM | 0.713 µM | 3.11 µM |
| O=C(O)C1CCCN1Cc1c[nH]c2ccccc12 (centres undefined) |  | > 100 µM |  | > 100 µM |  | > 100 µM |  | > 100 µM |  | > 100 µM |  | > 100 µM |  | > 100 µM |  | > 100 µM |  | > 100 µM |  | > 100 µM |
| Cc1ccc2c(/C=C/C(=O)c3cc(CN4CCOCC4)c(O)c4nc(C)ccc34)cc(CN3CCOCC3)c(O)c2n1 | 0.875 µM | 4.6 µM | 1.82 µM | 4.49 µM | 0.162 µM | > 100 µM | 0.485 µM | 2.4 µM | 1.13 µM | 3.77 µM | 0.603 µM | 17.6 µM | 1.22 µM | 4.7 µM | 0.386 µM | 2.66 µM | 0.779 µM | 14 µM | 0.851 µM | 2.27 µM |
| Cc1c2ncccc2c(C)c2c1[nH]c1ccc(O)cc12 | 4.01 µM | 20 µM | 23.1 µM | 24.3 µM and 111 µM | 4.08 µM | 21 µM | 7.83 µM | 39.9 µM | 17.4 µM | 25.9 µM and 61.6 µM | 19.7 µM | 20.2 µM and 84.3 µM |  | 29.3 µM |  | 3.56 µM and 2.13 µM | 42.8 µM |  | 10.7 µM | 9.81 µM and 43 µM |
| CN(C)CCCNC(=O)c1cc(NC(=O)c2cc(NC(=O)CCCN3c4ccccc4C=Cc4ccccc43)cn2C)cn1C | 13.4 µM | 54.2 µM |  |  | 23.6 µM | 59.9 µM | 3.96 µM | > 100 µM | 2.74 µM | 13.9 µM | 6.32 µM | > 100 µM | 4.19 µM | 69.8 µM | 2.88 µM | > 100 µM | 17.1 µM | > 100 µM | 8.61 µM | 85 µM |
| NCCCn1c2c(c3ccccc3c1=O)C(=O)c1cc3c(cc1-2)OCO3 | 0.766 µM | 3.85 µM | 0.121 µM | 1.98 µM | 1.05 µM | 4.43 µM | 0.111 µM | 2.35 µM |  | 4.17 µM | 0.159 µM | 1.62 µM | < 0.01 µM | 1.77 µM | < 0.01 µM |  | 0.407 µM | 3.66 µM | 2.35 µM | > 30.3 µM |
| Nc1nc(SCC(=O)O)[nH]c(=O)c1N |  | > 100 µM |  | > 100 µM |  | > 100 µM |  | > 100 µM |  | > 100 µM |  | > 100 µM |  | > 100 µM |  | > 100 µM |  | > 100 µM |  | > 100 µM |
| COC(=O)/C=C1\SC(=Nc2ccc(C(F)(F)F)cc2)N(CCc2c[nH]c3ccccc23)C1=O | 1.5 µM | 2.9 µM | 1.88 µM | 3.65 µM | 1.89 µM | 4.31 µM | 1.57 µM | 3.29 µM | 2.06 µM | 3.94 µM | 1.78 µM | 3.45 µM | 1.53 µM | 3.16 µM | 1.22 µM | 5.51 µM | 1.19 µM | 3.17 µM | 1.43 µM | 2.98 µM |
| O=C(Nc1ncc([N+](=O)[O-])s1)c1cccc([N+](=O)[O-])c1 | 3.18 µM | > 100 µM | 4 µM | 24.7 µM | 3.32 µM | > 100 µM | 6.04 µM | > 100 µM | 4.59 µM | 37.3 µM | 3.53 µM | > 100 µM | 2.78 µM | 11 µM | 3.04 µM | > 34.1 µM | 2.02 µM | 12.9 µM | 2.44 µM | 6.91 µM |
| CCOC(=O)Oc1c(OC)cc(C(=O)c2ccc(OC)c(OC(=O)CCl)c2OC)cc1OC | 0.414 µM | 23 µM | 9.57 µM | 66.7 µM | 0.497 µM | 3.98 µM | 0.455 µM | > 100 µM | > 100 µM | > 100 µM | 0.75 µM | > 100 µM | 0.996 µM | 9.5 µM | 0.994 µM | > 100 µM | 7.32 µM | > 100 µM | 1.54 µM | 8.08 µM |
| CC1/C=C/C=C/CC/C=C/C=C/C=C/C=C/C(OC2OC(C)C(O)C(N)C2O)CC2OC(CC(O)C(O)CCC(O)CC(O)CC(O)CC(=O)OC(C)C(C)C1O)CC(O)C2C(=O)O (centres undefined) | 101 mg/L | 37.2 µM and 150 µg/mL | 81.7 mg/L | 56.8 µM and 150 µg/mL | 41 mg/L | 45.2 µM and 93.8 µg/mL | 25.4 mg/L | 42.2 µM and 46 µg/mL | 28.3 mg/L | 32.5 µM and 53.6 µg/mL | 94.5 mg/L | 34 µM and 150 µg/mL | 38.8 mg/L | 34.6 µM and 116 µg/mL |  | 38.2 µM | 59.8 mg/L | > 100 µM and 150 µg/mL | 19.5 mg/L | 27.3 µM and 40.5 µg/mL |
| Clc1ccc(N2COOC3(OOC2)C2CC4CC(C2)CC3C4)cc1 | 13.2 µM | 39.1 µM | 12.7 µM | 90.8 µM | 5.34 µM | 74.9 µM |  | > 57.8 µM | 4.98 µM | 10.5 µM | > 40 µM | > 100 µM | 5.96 µM | > 58 µM | 3.82 µM | > 50.7 µM | 4.97 µM | > 100 µM | 6.96 µM | > 59.3 µM |
| O=C1NC(=O)[C@@H](c2cn3c4c(cccc24)CCC3)[C@@H]1c1c[nH]c2ccccc12 | 0.273 µM and 0.28 µM | > 2.22 µM and 0.789 µM | 0.273 µM and 0.326 µM | 0.973 µM and 1.14 µM | 0.327 µM and 0.369 µM | > 4.71 µM and 9.55 µM | 0.391 µM and 0.354 µM | > 10 µM and 15.2 µM | 0.57 µM and 4.7 µM | > 10 µM and 35.5 µM | 0.466 µM and 0.601 µM | > 10 µM and 22.6 µM | 0.522 µM and 1.1 µM | > 10 µM and 17.7 µM | 0.717 µM and 0.891 µM | > 10 µM and 18.1 µM | 0.456 µM and 0.625 µM | > 10 µM and 32.4 µM | 0.294 µM and 0.332 µM | > 10 µM and 2.91 µM |
| Cc1cc(S(=O)(=O)Nc2nnc(-c3ccco3)c(-c3ccco3)n2)c(SCc2ccccc2)cc1Cl | 26.2 µM | 50.9 µM | 26.1 µM | 56.3 µM | 39.4 µM | > 100 µM | 23 µM | 47.2 µM | 26.7 µM | 74.8 µM | 21.7 µM | 43.8 µM | 25.3 µM | 50.2 µM | 17.9 µM | 53 µM | 25.2 µM | 48.6 µM | 22.8 µM | 47.6 µM |
| C=C1C(=O)O[C@H]2[C@H]1CC/C(COC(=O)/C=C/c1cccnc1)=C\CC[C@@]1(C)O[C@@H]21 | 0.494 µM | 1.76 µM | 1.06 µM | 2.82 µM | 3.3 µM | 14.1 µM | 0.467 µM | 2.35 µM | 2.01 µM | 4.06 µM | 9.05 µM | 28.4 µM | 1.18 µM | 2.68 µM | 1.75 µM | 4.9 µM | 1.88 µM | 5.12 µM | 0.75 µM | 2.15 µM |
| O=P(Oc1ccccc1)(Oc1ccccc1)C(O)c1ccccc1 (centres undefined) | 43.9 µM | > 100 µM | 35 µM | > 100 µM | > 100 µM | > 100 µM | > 100 µM | > 100 µM | > 100 µM | > 100 µM | > 100 µM | > 100 µM | > 100 µM | > 100 µM | > 100 µM | > 100 µM | 25.2 µM | > 100 µM | 60.6 µM | > 100 µM |
| Cc1c(C(=O)CCl)c(=O)n(-c2ccccc2)n1C | 1.98 µM | 4.94 µM | 3.28 µM | 11.2 µM | 5.53 µM | 27.3 µM | 2.7 µM | 8.54 µM | 3.81 µM | 15.2 µM | 17.1 µM | 51.1 µM | 2.46 µM | 12.8 µM | 2.48 µM | 11.5 µM | 2.43 µM | 17.6 µM | 1.76 µM | 6.11 µM |
| CCOC(=O)c1sc2ncn(Cc3cccc(Cl)c3)c(=O)c2c1C | 12.6 µM | 25.1 µM | 20.7 µM | 36.6 µM | 7.78 µM | 20.7 µM | 18.1 µM | 32 µM |  |  | 16.3 µM | 29.8 µM | 17.2 µM | 30.9 µM | 13.2 µM | 25.9 µM | 15.6 µM | 29 µM | 16.6 µM | 30.2 µM |
